Measured values: US20100226885A1, “METHOD OF TREATING HEPATITIS C PATIENTS” (priority 2007, published 2010)

Experiments:
[1] = tested on: Hepatitis C; conditions: by week four; VX-950 alone; cited from earlier work
[2] = tested on: HCV genotype 1; test: Example 2: Phase II study of treatment-naïve patients, plasma HCV RNA by Roche COBAS TaqMan HCV/HPS assay; type: in vivo, human; conditions: addition to PegIntron/REBETOL combination therapy, 28 and 48 week regimens
Protocol: The effectiveness of a lead-in period with interferon and ribavirin combination therapy prior to the addition of an HCV protease inhibitor was further evaluated in a study of 595 treatment-naïve patients infected with HCV genotype 1. In this study, boceprevir (compound of Formula 1a) is being evaluated, compared to a control of PegIntron® (peginterferon alfa-2b) at 1.5 mcg/kg QW plus REBETOL® (ribavirin, USP) (800-1400 mg/day) for a treatment period of 48 weeks, in three treatment regimens: • P/R Lead-In +B/P/R: • PegIntron (1.5 mcg/kg QW) in combination with REBETOL (800-1400 mg/day) during a first treatment period of 4 weeks followed by adding boceprevir (800 mg TID) to the combination during a second treatment period of 24 or 44 weeks; thus, the total treatment time with PegIntron and REBETOL was 28 or 48 weeks; • B/P/R: • boceprevir (800 mg TID) in combination with PegIntron (1.5 mcg/kg QW) plus REBETOL (800-1400 mg/day) for a single treatment period of 28 or 48 weeks; and • B/P/Low-dose R: • boceprevir (800 mg TID) in combination with PegIntron (1.5 mcg/kg QW) plus low-dose REBETOL (400-1000 mg/day) for a single treatment period of 48 weeks. […]
Plasma HCV RNA levels were measured using the Roche COBAS TaqMan® HCV/HPS assay (Roche Molecular Systems, Somerville, N.J.).

Row | SMILES | treated patients showing evidence of negative HCV status [1] [%] | SVR compared to the PegIntron/REBETOL control [2]
1 | CCC[C@H](NC(=O)[C@@H]1[C@H]2CCC[C@H]2CN1C(=O)[C@@H](NC(=O)[C@@H](NC(=O)c1cnccn1)C1CCCCC1)C(C)(C)C)C(=O)C(=O)NC1CC1 [VX-950] | 79 | –
2 | CC(C)(C)NC(=O)N[C@H](C(=O)N1CC2C([C@H]1C(=O)NC(CC1CCC1)C(=O)C(N)=O)C2(C)C)C(C)(C)C (some centres unmarked) [boceprevir] | – | markedly increased SVR
